Results reported in patent US20070134660A1, “Methods for identifying modulators of kinesin activity” (ROSETTA INPHARMATICS LLC, priority 2003, published 2007).

How the values were obtained:
nKHC (SEQ ID NO:18) = molecular target: T1, nKHC (SEQ ID NO:18) (Homo sapiens, UniProt Q12840); test: nKHC motor domain ATPase assay; format: biochemical; settings: read-out: uKHC, nKHC, CENP-E, MKLP-1, KIF1B, MCAK ATPase IC50
T1 construct: His6 (printed only as 'H')
T1 sequence (Q12840 with tags, fused parts or gaps): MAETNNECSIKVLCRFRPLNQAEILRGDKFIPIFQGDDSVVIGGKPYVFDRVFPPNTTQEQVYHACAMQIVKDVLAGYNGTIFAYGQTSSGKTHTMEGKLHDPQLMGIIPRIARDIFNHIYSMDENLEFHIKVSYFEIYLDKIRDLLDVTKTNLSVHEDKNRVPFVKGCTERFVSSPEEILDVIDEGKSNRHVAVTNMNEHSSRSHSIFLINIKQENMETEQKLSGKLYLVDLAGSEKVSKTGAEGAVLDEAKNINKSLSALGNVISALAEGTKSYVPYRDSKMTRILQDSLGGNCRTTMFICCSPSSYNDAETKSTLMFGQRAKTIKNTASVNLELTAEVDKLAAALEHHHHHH

KIF1B (SEQ ID NO:21) = molecular target: T2, KIF1B (SEQ ID NO:21) (Homo sapiens, UniProt O60333); test: KIF1B motor domain ATPase assay; format: biochemical; settings: read-out: uKHC, nKHC, CENP-E, MKLP-1, KIF1B, MCAK ATPase IC50
T2 construct: His6 (printed only as 'H')
T2 sequence (O60333 with tags, fused parts or gaps): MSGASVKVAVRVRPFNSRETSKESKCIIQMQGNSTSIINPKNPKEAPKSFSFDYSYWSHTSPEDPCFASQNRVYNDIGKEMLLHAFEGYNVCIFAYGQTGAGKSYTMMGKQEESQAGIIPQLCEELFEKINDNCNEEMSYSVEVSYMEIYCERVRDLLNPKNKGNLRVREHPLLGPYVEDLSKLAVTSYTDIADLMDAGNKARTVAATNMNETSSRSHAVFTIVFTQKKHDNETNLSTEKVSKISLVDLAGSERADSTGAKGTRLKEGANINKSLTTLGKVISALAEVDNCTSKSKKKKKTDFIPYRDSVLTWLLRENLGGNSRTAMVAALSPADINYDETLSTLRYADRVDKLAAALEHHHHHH

MCAK (SEQ ID NO:22) = MCAK (SEQ ID NO:22) (Homo sapiens, UniProt Q99661); test: MCAK motor domain ATPase assay; format: biochemical; settings: read-out: uKHC, nKHC, CENP-E, MKLP-1, KIF1B, MCAK ATPase IC50
MCAK (SEQ ID NO:22), sequence (Q99661 183-646): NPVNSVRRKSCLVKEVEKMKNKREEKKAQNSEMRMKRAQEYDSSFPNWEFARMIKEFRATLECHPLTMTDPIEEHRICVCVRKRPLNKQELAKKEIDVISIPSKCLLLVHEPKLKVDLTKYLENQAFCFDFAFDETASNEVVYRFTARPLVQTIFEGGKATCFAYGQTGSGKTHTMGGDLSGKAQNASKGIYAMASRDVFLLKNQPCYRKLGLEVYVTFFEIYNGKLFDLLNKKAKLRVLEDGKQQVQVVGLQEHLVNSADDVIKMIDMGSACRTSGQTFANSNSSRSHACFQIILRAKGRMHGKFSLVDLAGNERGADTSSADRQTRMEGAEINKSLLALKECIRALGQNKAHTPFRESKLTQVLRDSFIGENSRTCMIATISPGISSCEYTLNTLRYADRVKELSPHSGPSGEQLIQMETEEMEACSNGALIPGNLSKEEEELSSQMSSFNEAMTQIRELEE
KIF3A (SEQ ID NO:16) = molecular target: T3, KIF3A (SEQ ID NO:16) (Homo sapiens, UniProt Q9Y496); test: KIF3A motor domain ATPase assay; format: biochemical; settings: n = 2
T3 construct: His6 (printed only as 'H')
T3 sequence (Q9Y496 with tags, fused parts or gaps): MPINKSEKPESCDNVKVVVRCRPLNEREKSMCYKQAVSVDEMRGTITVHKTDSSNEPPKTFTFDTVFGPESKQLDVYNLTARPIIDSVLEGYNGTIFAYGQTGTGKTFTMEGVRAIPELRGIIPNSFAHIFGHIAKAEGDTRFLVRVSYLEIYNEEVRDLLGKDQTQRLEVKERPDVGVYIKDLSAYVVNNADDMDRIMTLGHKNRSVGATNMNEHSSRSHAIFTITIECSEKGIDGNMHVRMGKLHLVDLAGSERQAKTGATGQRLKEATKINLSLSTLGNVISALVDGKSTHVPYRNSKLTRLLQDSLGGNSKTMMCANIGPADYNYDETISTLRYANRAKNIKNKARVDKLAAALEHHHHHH

CENP-E (SEQ ID NO:19) = molecular target: T4, CENP-E (SEQ ID NO:19) (Homo sapiens, UniProt Q02224); test: CENP-E motor domain ATPase assay; format: biochemical; settings: read-out: uKHC, nKHC, CENP-E, MKLP-1, KIF1B, MCAK ATPase IC50
T4 construct: His6 (printed only as 'H')
T4 sequence (Q02224 with tags, fused parts or gaps): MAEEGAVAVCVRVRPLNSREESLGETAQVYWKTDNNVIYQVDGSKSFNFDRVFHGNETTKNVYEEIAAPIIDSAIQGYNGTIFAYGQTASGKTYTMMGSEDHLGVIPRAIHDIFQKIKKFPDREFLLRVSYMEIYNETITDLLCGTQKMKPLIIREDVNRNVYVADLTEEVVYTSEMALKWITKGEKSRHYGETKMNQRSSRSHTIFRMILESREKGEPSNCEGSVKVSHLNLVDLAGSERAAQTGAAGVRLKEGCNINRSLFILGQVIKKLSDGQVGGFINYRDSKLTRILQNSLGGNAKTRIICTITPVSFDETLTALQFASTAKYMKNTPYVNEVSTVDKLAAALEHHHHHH

KSP (SEQ ID NO:15) = molecular target: T5, KSP (SEQ ID NO:15) (Homo sapiens, UniProt P52732); test: KSP motor domain ATPase assay; format: biochemical; settings: n = 2
T5 construct: His6 (printed only as 'H')
T5 sequence (P52732 with tags, fused parts or gaps): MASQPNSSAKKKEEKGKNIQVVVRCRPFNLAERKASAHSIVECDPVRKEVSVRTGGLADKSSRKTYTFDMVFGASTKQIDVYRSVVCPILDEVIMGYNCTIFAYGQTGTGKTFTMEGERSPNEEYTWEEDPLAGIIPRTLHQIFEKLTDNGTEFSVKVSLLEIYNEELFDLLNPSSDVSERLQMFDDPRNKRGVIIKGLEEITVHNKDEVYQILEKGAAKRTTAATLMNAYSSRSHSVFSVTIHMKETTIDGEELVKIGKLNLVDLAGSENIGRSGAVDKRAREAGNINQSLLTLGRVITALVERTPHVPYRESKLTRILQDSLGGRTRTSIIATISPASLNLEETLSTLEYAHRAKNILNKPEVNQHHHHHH

uKHC (SEQ ID NO:17) = molecular target: T6, uKHC (SEQ ID NO:17) (Homo sapiens, UniProt P33176); test: uKHC motor domain ATPase assay; format: biochemical; settings: read-out: uKHC, nKHC, CENP-E, MKLP-1, KIF1B, MCAK ATPase IC50
T6 construct: His6 (printed only as 'H')
T6 sequence (P33176 with tags, fused parts or gaps): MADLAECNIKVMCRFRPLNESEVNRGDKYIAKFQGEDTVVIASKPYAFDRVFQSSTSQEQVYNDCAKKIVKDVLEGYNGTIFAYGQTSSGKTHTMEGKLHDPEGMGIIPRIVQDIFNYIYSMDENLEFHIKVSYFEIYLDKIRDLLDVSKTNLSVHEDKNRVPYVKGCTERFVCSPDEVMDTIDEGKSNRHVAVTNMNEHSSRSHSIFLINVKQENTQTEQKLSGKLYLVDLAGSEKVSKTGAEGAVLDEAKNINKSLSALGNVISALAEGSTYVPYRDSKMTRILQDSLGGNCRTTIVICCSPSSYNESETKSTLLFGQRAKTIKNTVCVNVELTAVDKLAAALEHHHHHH

A2780 cells = test: alamarBlue cell growth assay, candidate KIF14 modulators in A2780 cells; format: cell-based; settings: Homo sapiens, 48 hour incubation; for EC50: read-out: EC50 (nM), Growth Inhibition in A2780 Cells; for inhibition at 0.0137 µM: [Compound] 13.7 nM; for inhibition at 0.0141 µM: [Compound] 14.1 nM; for inhibition at 0.123 µM: [Compound] 123 nM; for inhibition at 0.37 µM: [Compound] 370 nM; for inhibition at 1.111 µM: [Compound] 1111 nM; for inhibition at 3.333 µM: [Compound] 3333 nM; for inhibition at 10 µM: [Compound] 10000 nM
Protocol: alamarBlue™ Assay for Cell Growth: The alamarBlue™ assay is a measure of cellular respiration and is used as a measure of live cell number. The internal environment of the proliferating cell is more reduced than that of non-proliferating cells. Specifically, the ratios of NADPH/NADP, FADH/FAD, FMNH/FMN, and NADH/NAF increase during proliferation. alamarBlue™ can be reduced by these metabolic intermediates and, therefore, can be used to monitor cell proliferation.
A2780 cells were plated at a density of 4000/cells per well in RPMI1640 (containing 10% FBS, 1% Pen/Strep, 0.01 mg/ml insulin) in a 96-well plate (Costar, Cat. No. 3606) 16 hours prior to treatment. A compound dilution plate was prepared from a 10 mM stock solution using a 3-fold serial dilution series in DMSO. A 1.2 microliter aliquot of each concentration was transferred into 0.6 ml of medium. A 100 microliter aliquot of each concentration was added to the appropriate wells already containing 100 microliters of compound-free medium. After a 48 hour incubation at 37° C., 20 microliters of alamarBlue™ was added to each well (10% vol/vol). After an additional 6 hour incubation at 37° C., the plates were read on a spectrofluorimeter SpectroMax Gemini (excitation 544 nm, emission 590 nm). The background value (averaged from wells with no cells) was subtracted from each reading.

IC50 (nKHC (SEQ ID NO:18)) [µM]	IC50 (KIF1B (SEQ ID NO:21)) [µM]	IC50 (MCAK (SEQ ID NO:22)) [µM]	IC50 (KIF3A (SEQ ID NO:16)) [µM]	IC50 (CENP-E (SEQ ID NO:19)) [µM]	IC50 (KSP (SEQ ID NO:15)) [µM]	IC50 (uKHC (SEQ ID NO:17)) [µM]	EC50 (A2780 cells) [nM]	Structure (SMILES)	inhibition at 0.0137 µM (A2780 cells) [%]	inhibition at 0.0141 µM (A2780 cells) [%]	inhibition at 0.123 µM (A2780 cells) [%]	inhibition at 0.37 µM (A2780 cells) [%]	inhibition at 1.111 µM (A2780 cells) [%]	inhibition at 3.333 µM (A2780 cells) [%]	inhibition at 10 µM (A2780 cells) [%]
> 40	> 40	> 40	31	> 40	25.1	> 40		CC(C)c1ccc(/C=N/NC(N)=S)cc1 [compound 2, 4-isopropylbenzaldehyde thiosemicarbazone]							
> 40	> 40	> 40	1.55	> 40	1.1	> 40	7980	CC(C)c1ccc(/C=N/NC(N)=S)cc1[N+](=O)[O-] [compound 4, 4-isopropyl-3-nitrobenzaldehyde thiosemicarbazone]	-7	-4	-9.2	4.4	7.5	25	61.8
> 40	> 40	> 40	0.699	> 40	1.53	> 40	3600	NC(=S)N/N=C/c1ccc(C2CCCCC2)cc1 [compound 3, 4-cyclohexylbenzaldehyde thiosemicarbazone]	-5.3	-8.1	-10.4	7.8	6	39.8	107

Structure (SMILES)	IC50 (nKHC (SEQ ID NO:18)) [µM]	IC50 (KIF1B (SEQ ID NO:21)) [µM]	IC50 (MCAK (SEQ ID NO:22)) [µM]	IC50 (KIF3A (SEQ ID NO:16)) [µM]	IC50 (CENP-E (SEQ ID NO:19)) [µM]	IC50 (KSP (SEQ ID NO:15)) [µM]	IC50 (uKHC (SEQ ID NO:17)) [µM]	EC50 (A2780 cells) [nM]	inhibition at 0.0137 µM (A2780 cells) [%]	inhibition at 0.0141 µM (A2780 cells) [%]	inhibition at 0.123 µM (A2780 cells) [%]	inhibition at 0.37 µM (A2780 cells) [%]	inhibition at 1.111 µM (A2780 cells) [%]	inhibition at 3.333 µM (A2780 cells) [%]	inhibition at 10 µM (A2780 cells) [%]
NC(=S)N/N=C\c1ccc(-c2ccccc2)cc1 [compound 1, 1,1′-biphenyl-4-carbaldehyde thiosemicarbazone]	> 40	> 40	> 40	0.631	> 40	> 40	> 40	> 10000	-4.5	11.6	-10.3	19	18.7	23.6	31.3
